Data published in the supplement of paper PMC10307832.

What was measured:
Assay in all cases: relative viability (nuclei count vs DMSO), 5 days (fraction); higher = more cells survive
[1] = compound: NC(=O)[C@@H](CCC(F)(F)F)N(Cc1ccc(-c2ncon2)cc1F)S(=O)(=O)c1ccc(Cl)cc1 [Avagacestat] + CCNC(=O)c1noc(-c2cc(C(C)C)c(O)cc2O)c1-c1ccc(CN2CCOCC2)cc1 [Luminespib] (partner 0.01 µM)
In short: (§1)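 Values are medians from duplicate plates. Each reflects relative viability, defined as the nuclei count of treated wells over that of vehicle wells. Lung cancer cell lines in 1536-well plates were pin-tool dosed one day after seeding with one drug alone or with a fixed anchor-drug dose plus five library-drug doses (not always all listed) in √10 steps, then fixed, stained and imaged at 4× after 5 days.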

[2] = compound: NC(=O)[C@@H](CCC(F)(F)F)N(Cc1ccc(-c2ncon2)cc1F)S(=O)(=O)c1ccc(Cl)cc1 [Avagacestat] + Cc1cc(Nc2cc(N3CCN(C)CC3)nc(Sc3ccc(NC(=O)C4CC4)cc3)n2)n[nH]1 [Tozasertib] (partner 0.1 µM)
In short: as §1

[3] = compound: NC(=O)[C@@H](CCC(F)(F)F)N(Cc1ccc(-c2ncon2)cc1F)S(=O)(=O)c1ccc(Cl)cc1 [Avagacestat] + Cc1nc(NC(=O)N2CCC[C@H]2C(N)=O)sc1-c1ccnc(C(C)(C)C(F)(F)F)c1 [Alpelisib] (partner 2 µM)
In short: as §1

[4] = compound: NC(=O)[C@@H](CCC(F)(F)F)N(Cc1ccc(-c2ncon2)cc1F)S(=O)(=O)c1ccc(Cl)cc1 [Avagacestat] + Cc1nc(Nc2ncc(C(=O)Nc3c(C)cccc3Cl)s2)cc(N2CCN(CCO)CC2)n1 [Dasatinib] (partner 0.075 µM)
In short: as §1

Row | Cell Line | relative viability ([1]; first compound 0.08 µM) | relative viability ([1]; first compound 0.253 µM) | relative viability ([1]; first compound 0.8 µM) | relative viability ([1]; first compound 2.53 µM) | relative viability ([1]; first compound 8 µM) | relative viability ([2]; first compound 0.08 µM) | relative viability ([2]; first compound 0.253 µM) | relative viability ([2]; first compound 0.8 µM) | relative viability ([2]; first compound 2.53 µM) | relative viability ([2]; first compound 8 µM) | relative viability ([3]; first compound 0.08 µM) | relative viability ([3]; first compound 0.253 µM) | relative viability ([3]; first compound 0.8 µM) | relative viability ([3]; first compound 2.53 µM) | relative viability ([3]; first compound 8 µM) | relative viability ([4]; first compound 0.08 µM) | relative viability ([4]; first compound 0.253 µM) | relative viability ([4]; first compound 0.8 µM) | relative viability ([4]; first compound 2.53 µM) | relative viability ([4]; first compound 8 µM)
1 | NCI-H2126 | 0.893 | 0.939 | 0.978 | 0.852 | 0.891 | 0.81 | 0.859 | 0.906 | 0.334 | 0.778 | 0.737 | 0.743 | 0.747 | 0.734 | 0.68 | 0.588 | 0.587 | 0.606 | 0.467 | 0.582
2 | NCI-H2170 | 0.721 | 0.588 | 0.817 | 0.399 | 0.754 | 0.807 | 0.782 | 0.812 | 0.72 | 0.646 | 1.02 | 0.843 | 0.883 | 0.751 | 0.721 | 0.622 | 0.535 | 0.647 | 0.48 | 0.52
3 | NCI-H2228 | 0.221 | 0.117 | 0.179 | 0.132 | 0.108 | 0.206 | 0.255 | 0.206 | 0.224 | 0.242 | 0.842 | 0.619 | 0.773 | 0.567 | 0.698 | 0.546 | 0.426 | 0.435 | 0.408 | 0.474
4 | NCI-H2347 | 0.633 | 0.379 | 0.608 | 0.512 | 0.311 | 0.452 | 0.52 | 0.526 | 0.519 | 0.503 | 1.15 | 1.08 | 1.12 | 0.957 | 1.02 | 0.292 | 0.292 | 0.369 | 0.297 | 0.331
5 | NCI-H2405 | 0.638 | 0.856 | 0.58 | 0.665 | 0.466 | 0.718 | 0.751 | 0.747 | 0.714 | 0.661 | 0.717 | 0.742 | 0.735 | 0.583 | 0.625 | 0.186 | 0.204 | 0.217 | 0.229 | 0.226
6 | NCI-H3122 | 0.0934 | 0.101 | 0.074 | 0.0983 | 0.11 | 0.446 | 0.517 | 0.419 | – | 0.384 | 0.903 | 0.966 | 0.802 | 0.813 | 0.739 | 0.944 | 0.759 | 0.843 | 0.815 | 0.774
7 | PC-3 [JPC-3] | 0.677 | 0.81 | 0.785 | 0.671 | 0.628 | 1.01 | 0.99 | 1.08 | 0.943 | 0.826 | 1.04 | 1.18 | 1.12 | 1.12 | 1.03 | 1.17 | 1.14 | 1.16 | 0.888 | 0.843
8 | PC-14 | 0.151 | 0.162 | 0.162 | – | 0.176 | 0.733 | 0.859 | 0.925 | 0.692 | 0.633 | 0.9 | 1.05 | 0.975 | 1.06 | 0.587 | 0.214 | 0.182 | 0.169 | 0.13 | 0.207
9 | RERF-LC-KJ | 1.72 | 1.39 | 1.36 | 1.35 | 1.13 | 0.5 | 0.471 | 0.466 | 0.418 | 0.379 | 0.813 | 0.823 | 0.831 | 0.831 | 0.703 | 0.974 | 0.915 | 0.776 | 0.748 | 0.664
10 | SK-LU-1 | 0.223 | 0.189 | 0.218 | 0.201 | 0.225 | 0.317 | 0.318 | 0.329 | 0.269 | 0.31 | 1.02 | 0.633 | 0.937 | 0.773 | 0.807 | 0.172 | 0.138 | 0.18 | 0.142 | 0.189
11 | SK-MES-1 | 0.863 | 0.865 | 0.724 | 0.616 | 0.788 | 1.13 | 1.23 | 1.07 | 0.874 | 0.783 | 0.992 | 0.948 | 0.741 | 0.892 | 0.457 | 0.33 | 0.301 | 0.394 | 0.247 | 0.364
12 | SW 1573 | 0.341 | 0.257 | 0.218 | 0.196 | 0.214 | 0.169 | 0.195 | 0.173 | 0.217 | 0.176 | 0.858 | 0.855 | 0.688 | 0.753 | 0.494 | 0.515 | 0.593 | 0.523 | 0.565 | 0.279
13 | UMC-11 | 1.18 | 1.35 | 1.1 | 1.16 | 1.14 | 0.206 | 0.225 | 0.201 | 0.195 | 0.202 | 1.22 | 1.19 | 1.21 | 0.885 | 0.933 | 0.633 | 0.598 | 0.647 | 0.541 | 0.473
